Reference: ChEMBL document CHEMBL3045726, “Fungicidal Activity of Pyrazolylpyrimidines” (1990)
Values after ≈ are worked out from the molar mass of the structure shown.

Assays:
Format in all cases: functional
[1] = tested on: Pyricularia oryzae; experiment: Fungicidal activity against Magnaporthe oryzae by agar dilution method
[2] = tested on: Nakataea oryzae; experiment: Fungicidal activity against Magnaporthe salvinii by agar dilution method
[3] = tested on: Pyricularia oryzae; experiment: Fungicidal activity against Magnaporthe oryzae in rice seedlings assessed as control of rice blast at 500 ppm by preventive foliar treatment
[4] = tested on: Pyricularia oryzae; experiment: Fungicidal activity against Magnaporthe oryzae in rice seedlings assessed as control of rice blast at 500 ppm by curative foliar treatment

| Structure (SMILES) | MIC [1] [µg/mL] | MIC [2] [µg/mL] | Activity [3] [%] | Activity [4] [%] |
| --- | --- | --- | --- | --- |
| CCOC(=O)c1c(C)nn(-c2nc(C)cc(C)n2)c1C | > 100 | > 100 | 69 | 85 |
| Cc1cc(C)n(-c2nc3ccccc3s2)n1 | > 100 | > 100 | 40 | 31 |
| CCCc1c(C)nn(-c2nc(C)cc(C)n2)c1C | 25 (≈ 102 µM) | 12.5 (≈ 51.2 µM) | 90 | 98 |
| CCNc1nc(NCC)nc(-n2nc(C)cc2C)n1 | 50 (≈ 191 µM) | 25 (≈ 95.7 µM) | 100 | 81 |
| Cc1cc(C)nc(-n2nc(-c3ccccc3)cc2-c2ccccc2)n1 | > 100 | > 100 | 31 | 40 |
| COc1cc(C)nc(-n2nc(C)cc2OC)n1 [EPIRIZOLE] | > 100 | > 100 | – | 89 |
| Cc1cc(C)nc(-n2nc(C)c(C)c2C)n1 | 100 (≈ 462 µM) | 50 (≈ 231 µM) | 81 | 99 |
| CCc1c(C)nn(-c2nc(C)cc(C)n2)c1C | 50 (≈ 217 µM) | 50 (≈ 217 µM) | 100 | 100 |
| Cc1cc(C)nc(-n2nc(C(F)(F)F)cc2-c2ccccc2)n1 | 100 (≈ 314 µM) | > 100 | 74 | 53 |
| C=CCc1c(C)nn(-c2nc(C)cc(C)n2)c1C | 100 (≈ 413 µM) | 25 (≈ 103 µM) | 85 | 99 |
| Cc1cc(C)n(-c2ccc(O)nn2)n1 | 100 (≈ 526 µM) | > 100 | 29 | 0 |
| CCCc1cc(CCC)n(-c2nc(C)cc(C)n2)n1 | 12.5 (≈ 48.4 µM) | 6.25 (≈ 24.2 µM) | 40 | 100 |
| Cc1cc(C)n(-c2cc(C)c3ccccc3n2)n1 | > 100 | > 100 | 81 | 69 |
| Cc1cc(C)nc(-n2nc(C)c(Cl)c2C)n1 | 50 (≈ 211 µM) | 50 (≈ 211 µM) | 29 | 99 |
| Cc1cc(C)nc(-n2nc3c(c2C)CCCC3)n1 | 12.5 (≈ 51.6 µM) | 12.5 (≈ 51.6 µM) | 84 | 99 |
| Cc1cc(C)nc(-n2nc(C(C)(C)C)cc2C(C)(C)C)n1 | > 100 | > 100 | 69 | 89 |
| Cc1cc(C)n(-c2nc(C)c(C)s2)n1 | > 100 | > 100 | 0 | 15 |
| CCc1cc(CC)n(-c2nc(C)cc(C)n2)n1 | 25 (≈ 109 µM) | 25 (≈ 109 µM) | 40 | 100 |
| CCOC(=O)c1cc(C)nn1-c1nc(C)cc(C)n1 | > 100 | > 100 | 0 | 0 |
| Cc1cc(C)nc(-n2nc(C(F)(F)F)cc2C(F)(F)F)n1 | > 100 | > 100 | 51 | 31 |
| Cc1cc(C)n(-c2ncc3ccccc3n2)n1 | 25 (≈ 111 µM) | 25 (≈ 111 µM) | 84 | 99 |
| Cc1cc(C)nc(-n2nc(C)cc2-c2ccccc2)n1 | 100 (≈ 378 µM) | – | 67 | 27 |
| Cc1cc(C)n(-c2nc(O)nc(O)n2)n1 | > 100 | > 100 | – | 31 |
| Cc1nc(-n2nc(C)c(Br)c2C)nc(O)c1Br | 50 (≈ 138 µM) | 25 (≈ 69.1 µM) | 40 | 31 |
| CC(=O)c1c(C)nn(-c2nc(C)cc(C)n2)c1C | > 100 | > 100 | 40 | 84 |
| Cc1cc(C)n(-c2nc3ccccc3[nH]2)n1 | 100 (≈ 471 µM) | 25 (≈ 118 µM) | – | 0 |
| Cc1cc(C)n(-c2nc3ccccc3c(=O)[nH]2)n1 | 0.78 (≈ 3.25 µM) | – | 40 | 85 |
